According to patent US10954200B1, “Anti-angiogenesis compound” (KING SAUD UNIVERSITY, priority 2019, dated 2021):

Key:
MCF-7 cells [1] = assay: Trypan blue dye exclusion assay, MCF-7; assay type: cell-based; settings: Homo sapiens, MCF7; MCF-7, 48 h; read-out: IC50 value (μM) against MCF-7 cells, Trypan blue assay
Procedure: (§1) Breast cancer cells (MCF-7), lung cancer cells (A549), Hela cells, and peripheral blood mononuclear cells (PBMC) were purchased from the National Center for Cell Sciences (NCCS), Pune, India. The cancer cells were maintained in Dulbecco's modified eagles medium (DMEM), supplemented with 2 mM 1-glutamine and balanced salt solution (BSS), adjusted to contain 1.5 g/L Na2CO3, 0.1 mM nonessential amino acids, 1 mM sodium pyruvate, 2 mM 1-glutamine, 1.5 g/L glucose, 10 mM (4-(2-hydroxyethyl)-1-piperazineethane sulfonic acid) (HEPES), and 10% fetal bovine serum (GIBCO, USA). Penicillin and streptomycin (100 IU/100 μg) were adjusted to 1 mL/L. The cells were maintained at 37° C. with 5% CO2 in a humidified CO2 incubator.
(§2) The cytotoxic effects of synthesized compounds on various types of cancer cells were determined by trypan blue dye exclusion assay. The cultured cells were treated with the synthesized compounds and incubated for 48 h. After the incubation period, the cells were detached by 0.5% trypan-EDTA solution, harvested by centrifugation at 3000 rpm for 5 minutes and diluted in 1 ml of PBS. […] About 20 μl of cell suspensions were carefully and continuously filled in the haemocytometer chamber and viable cells were counted in 1×1 mm squares, four chambers and the average number of cells per square determined. Total viable cells were determined using the following formula, […]

caspase-3 = assay: Caspase-3 colorimetric assay; assay type: cell-based, human
Procedure: Using CPP32/Caspase-3 Colorimetric Assay Kit, the activated caspase was estimated as per manufacturer's protocol. The buffers used in the experiment were those supplied along with the kit. A549 cells (8×10^5 per 12.5 cm^2 culture flasks) were seeded with their respective growth medium and incubated for 24 h at 37° C. with/without 5% CO2. Then, confluent cells were added with the respective drug medium while maintaining an untreated group as a control. Cultures were incubated for 6 h, maintaining the same conditions, 0.1 mM Hydrogen Peroxide (H2O2) and 10 μM standard drug were used as positive control for activation of caspase-3. After treatment incubation, the detached cells in the supernatant were collected, and the adherent cells were trypsinized to add into the respective tubes. Subsequently, tubes were centrifuged at 1500 rpm for 10 min to acquire a cell pellet. […] The […] was transferred to fresh tubes and the protein concentrations of samples were determined by employing Bradford assay. […] Post-incubation, the plate was read at 405 nm in a Dynex Opsys MRTM Microplate Reader (Dynex Technologies, VA, USA). Percentage caspase-3 activation was calculated using the following formula: % Caspase-3 activation=[(At−Ac)/Ac]×100
“At” represents the mean absorbance of test wells and “Ac” represents the mean absorbance of the control wells.

NIH-3T3 cells = assay: Toxicity to NIH-3T3 cells; assay type: cell-based
PBMC cells [2] = assay: MTT cell viability assay, PBMC; assay type: cell-based, human; settings: 48 h, read-out: IC50 value (μM) against PBMC cells, MTT assay
Procedure: as §1
(§3) The inhibitory concentration (IC50) value was evaluated using an MTT [3-(4,5-dimethylthiazol-2-yl)-2,5-diphenyltetrazolium bromide] assay. Cancer cells were grown (1×10^4 cells/well) in a 96-well plate for 48 h to 75% confluence. The medium was replaced with fresh medium containing serially diluted synthesized compounds, and the cells were further incubated for 48 h. The culture medium was removed, and 100 μL of the MTT [3-(4,5-dimethylthiozol-2-yl)-3,5-diphenyl tetrazolium bromide] (Hi-Media, Mumbai, India) solution was added to each well and incubated at 37° C. for 4 h. […] The optical density was measured at 620 nm in an ELISA multiwell plate reader (Thermo Multiskan EX, USA). […]

cancer cells = assay: MTT and trypan blue assays, overall IC50; assay type: cell-based; settings: read-out: anti-angiogenesis effect, IC50 values
Procedure: (§4) The inhibitory concentration (IC50) value was evaluated using an MTT [3-(4,5-dimethylthiazol-2-yl)-2,5-diphenyltetrazolium bromide] assay. Cancer cells were grown (1×10^4 cells/well) in a 96-well plate for 48 h to 75% confluence. The medium was replaced with fresh medium containing serially diluted synthesized compounds, and the cells were further incubated for 48 h. The culture medium was removed, and 100 μL of the MTT [3-(4,5-dimethylthiozol-2-yl)-3,5-diphenyl tetrazolium bromide] (Hi-Media, Mumbai, India) solution was added to each well and incubated at 37° C. for 4 h. After removal of the supernatant, 50 μL of DMSO was added to each of the wells and incubated for 10 min to solubilize the formazan crystals. The optical density was measured at 620 nm in an ELISA multiwell plate reader (Thermo Multiskan EX, USA). The OD value was used to calculate the percentage of viability using the following formula.
The cytotoxic effects of synthesized compounds on various types of cancer cells were determined by trypan blue dye exclusion assay. […] About 20 μl of cell suspensions were carefully and continuously filled in the haemocytometer chamber and viable cells were counted in 1×1 mm squares, four chambers and the average number of cells per square determined. Total viable cells were determined using the following formula, […]

MCF-7 cells [3] = assay: Colony formation assay; assay type: cell-based, human; settings: 5, 10, 20 μM, 6 hours pretreatment, 12 days
Procedure: Long-term effects of the active compound were determined by colony formation with minor modifications. […] Surviving colonies were fixed and stained by using 0.5% crystal violet. Visible colonies were observed and colonies were counted and photographed.

PBMC cells [4] = assay: Trypan blue dye exclusion assay, PBMC; assay type: cell-based, human; settings: 48 h, read-out: IC50 value (μM) against PBMC cells, Trypan blue assay
Procedure: as §1, §2

Hela cells [5] = assay: MTT cell viability assay, Hela; assay type: cell-based; settings: Homo sapiens, 48 h, read-out: IC50 value (μM) against Hela cells, MTT assay
Procedure: as §1, §3

MCF-7 cells [6] = assay: MTT cell viability assay, MCF-7; assay type: cell-based; settings: Homo sapiens, MCF7; MCF-7, 48 h; read-out: IC50 value (μM) against MCF-7 cells, MTT assay
Procedure: as §1, §3

EAC cells [7] = assay: MTT cell viability assay, EAC; assay type: cell-based, mouse; settings: 48 h, read-out: IC50 value (μM) against EAC cells, MTT assay
Procedure: as §4

A549 cells [8] = assay: Trypan blue dye exclusion assay, A549; assay type: cell-based; settings: Homo sapiens, A549, 48 h; read-out: IC50 value (μM) against A549 cells, Trypan blue assay
Procedure: as §1, §2

Hela cells [9] = assay: Trypan blue dye exclusion assay, Hela; assay type: cell-based; settings: Homo sapiens, 48 h, read-out: IC50 value (μM) against Hela cells, Trypan blue assay
Procedure: as §1, §2

EAC tumor = assay: In vivo EAC ascites tumor growth; settings: for decrease of tumor volume, % of inhibition: three doses on alternate days
Procedure: The EAC tumor was obtained from Mahajana Education Center, BOC, in Biotechnology. Microbiology& Biochemistry Mahajana College, Mysore University, Mysore, Karnataka, India, and the same was induced into adult Swiss albino mice i.p and left for the growth.
The EAC tumor bearing mice (donor) were taken on the 12th day after tumor transplantation and the ascites fluid was drawn using an 18 gauge needle into a sterile syringe. Then the tumor cell viability was tested by trypan blue exclusion assay and the cells were counted using a haemocytometer. The ascites fluid was suitably diluted to get a concentration of 5×10^6/0.2 ml of tumor cell suspension. This was injected into the i.p cavity of Swiss mice to obtain ascites tumor and the process was repeated every 12 days.
Ascites tumor was obtained by injecting 5×10^6 viable tumor cells into i.p cavity of Swiss mice. Tumor growth was followed by recording the animal weights. These cells grew in the peritoneum of mice, forming an ascites tumor with enormous abdominal swelling and showing a profound increase in body weight. The EAC cells began their exponential growth phase from the 7th day after tumor cell injection and the animals succumbed to the ascites tumor burden between 16 to 20 days after injection of tumor cells.
(§5) The effect of potent synthesized compound BAMC on the modulation of neovessel and tumor growth was verified in EAC bearing animals. The EAC tumor bearing mice were grouped separately at two different concentrations (25 and 50 mg/Kg, b.w/i.p) of potent synthesized compounds and individually the groups were treated using a 26 gauge needle. Then, after the onset of tumor on the 4th day, three doses were given on every alternative day. The growth of the tumor was monitored by taking the body weight of the animals every day. Then, control animals were injected with 0.2 ml of saline (i.p) on every alternative day. In each treatment, at least six mice were taken and each experiment was repeated thrice. After the completion of treatment, the animals from each group were sacrificed on the 10th day and the EAC cells along with ascites fluid were harvested and the quantity was recorded. The peritoneum of the mice was cut open and the inner lining of the peritoneal cavity was examined for angiogenesis (vasculature) in compound-treated, tumor bearing mice. Finally, the inner lining of normal mice was also examined for vasculature and photographed using Sony steady shot DSC-W610 camera. These sets of animals were used to study the survivability analysis after treatment until their death.

A549 cells [10] = assay: Cancer cell migration (scratch wound) assay; assay type: cell-based; settings: Homo sapiens, 48 h
Procedure: The A549 cells were cultured in a six well plate until they reached a confluence of 60-70%. A scratch was made to form a wound using a micropipette tip and the monolayer was washed with growth medium. Then, 2 ml medium containing different concentrations of test drugs was added to the respective wells, incubated for 48 h, fixed with chilled 70% ethanol and stained with crystal violet (0.4 g/l). Images were taken from random fields at regular time intervals using an inverted microscope (Bresser, Biolux). Finally, the percentage of cell migration was calculated by comparing the final gap width to initial gap width.

EAC cells [11] = assay: Trypan blue dye exclusion assay, EAC; assay type: cell-based, mouse; settings: 48 h, read-out: IC50 value (μM) against EAC cells, Trypan blue assay
Procedure: The cytotoxic effects of synthesized compounds on various types of cancer cells were determined by trypan blue dye exclusion assay. The cultured cells were treated with the synthesized compounds and incubated for 48 h. After the incubation period, the cells were detached by 0.5% trypan-EDTA solution, harvested by centrifugation at 3000 rpm for 5 minutes and diluted in 1 ml of PBS. Then, 10 μl of trypan blue dye solution was added to each sample and cells were re-suspended. About 20 μl of cell suspensions were carefully and continuously filled in the haemocytometer chamber and viable cells were counted in 1×1 mm squares, four chambers and the average number of cells per square determined. Total viable cells were determined using the following formula,
The values were plotted in MS excel version 8.1, graphed and the inhibitory concentration-50 (IC50) values were estimated.

[12] = tested on: EAC induced angiogenesis in peritoneum; assay: Peritoneal angiogenesis assay; assay type: in vivo, Swiss albino mice
Procedure: as §5

[13] = tested on: genomic DNA of cancer cells; assay: DNA fragmentation assay (apoptotic ladder); assay type: cell-based; settings: treated vs untreated cells
Procedure: DNA damaging studies were carried out according to previously described methods. The DNA damaging activity of the compound on genomic DNA of both control and treated cells were evaluated by Phenol:Chloroform method. Briefly, the cells were first lysed using lysis buffer (50 mM Tris-Hcl, 0.5% SDS, pH 8.0) and incubated for 30 minutes at […]. The cell lysate was precipitated by using potassium acetate (8M) and incubated at 4° C. for 1 hr. The supernatant was mixed with phenol:Chloroform:isoamylalcohol at 25:24:1 ratio. This step was repeated thrice. DNA was precipitated by adding ice cold alcohol and precipitated DNA was air dried and dissolved by using appropriate amounts of TE Buffer (pH 8.0). Precipitated DNA was subjected to RNase digestion (2 μg/mL) for 1 hr at 37° C. The obtained DNA was quantified by using nanodrop (Eppendrof Ag 22331 Hamburg 6135EM402331) and equal amounts of (50 μg) of DNA were loaded to 1% agarose gel, observed under uv-trans illuminator, and documented.

A549 cells [14] = assay: MTT cell viability assay, A549; assay type: cell-based; settings: Homo sapiens, A549, 48 h; read-out: IC50 value (μM) against A549 cells, MTT assay
Procedure: as §1, §3

With `Cc1ccccc1OCC(=O)NNC(=O)C1CN(Cc2ccccc2)CCO1` (centres unmarked) [BAMC, 4-Benzyl-N′-(2-(o-tolyloxy)acetyl) morpholine-2-carbohydrazide] the IC50 (MCF-7 cells [1]) was 4.6 ± 1.1 µM, the “percentage of caspase-3 activation” value (caspase-3; MCF-7, BAMC concentration not stated) was 84.5% and the “toxicity to NIH-3T3 cells” value (NIH-3T3 cells) was about 97 µM. For the same compound, the IC50 (PBMC cells [2]; Homo sapiens) was 89.9 ± 3.5 µM, the IC50 (cancer cells) was about 5.5 µM and the “colony formation (colonogenic efficiency)” value (MCF-7 cells [3]) was “visibly diminished the colonogenic efficiency of MCF-7 cells”. For the same compound, the IC50 (PBMC cells [4]; Homo sapiens) was 85.7 ± 0.7 µM, the IC50 (Hela cells [5]) was 4.9 ± 0.2 µM and the IC50 (MCF-7 cells [6]) was 4.5 ± 2 µM. The IC50 (EAC cells [7]; Mus musculus) was 6.7 ± 1.8 µM, the IC50 (A549 cells [8]) was 5.8 ± 0.7 µM and the IC50 (Hela cells [9]) was 5.2 ± 1.3 µM. The “decrease of tumor volume, % of inhibition” value (EAC tumor; EAC mice, 25 mg/kg bw i.p.) was 74.35%, the “decrease of tumor volume, % of inhibition” value (EAC tumor; EAC mice, 50 mg/kg bw i.p.) was 80.2% and the “adverse effect on normal lymphoid organs (morphology of kidney, liver, spleen)” value (EAC tumor; EAC mice, 25 and 50 mg/kg) was “did not show any symptoms of adverse effect”. For the same compound, the cell density reduction (EAC tumor; EAC mice, 25 and 50 mg/kg, concentration dependent) was “six fold reduction”, the “body weight of tumor bearing mice” value (EAC tumor; EAT bearing mice, treated vs control) was “significant decrease in body weight” and the inhibition at 10 µM (A549 cells [10]; A549, 10 μM) was 13%. For the same compound, the inhibition at 20 µM (A549 cells [10]; A549, 20 μM) was 72.3%, the IC50 (EAC cells [11]; Mus musculus) was 6.8 ± 1.4 µM and the “regression of EAC induced angiogenesis in peritoneum” value ([12]; first value of 'respectively' (25 mg/kg)) was 40%. The “regression of EAC induced angiogenesis in peritoneum” value ([12]; second value of 'respectively' (50 mg/kg)) was 15%, the “DNA fragmentation (apoptotic ladder), agarose gel” value [13] was “typical “ladder (A)” formation of DNA” and the IC50 (A549 cells [14]) was 5.6 ± 1 µM.

`N.N.[Cl][Pt][Cl]` [Cisplatin, reference compound] showed an IC50 (PBMC cells [2]) of 91.4 ± 1.1 µM, an IC50 (PBMC cells [4]) of 96.1 ± 0.8 µM and an IC50 (EAC cells [7]) of 4.9 ± 1.1 µM. The IC50 (EAC cells [11]) was 4.4 ± 1.3 µM.

`OO` [H2O2, Hydrogen Peroxide, reference compound] was tested, and the “percentage of caspase-3 activation” value (caspase-3; MCF-7, 0.1 mM, positive control) was 91.1%.
